ChEMBL document CHEMBL3259643 (Eur J Med Chem, 2014)
Activity calls are given as the source filed them. No cut-off for these calls is given here.

Assays:
[1] = Apparent octanol-phosphate buffer partition coefficient, log D of the compound at 1 mg at pH 7.4 after 24 hrs by HPLC analysis; assay type: physicochemical
Neuraminidase = Neuraminidase (Influenza A virus, UniProt B4URF0); set-up: species or system Influenza A virus (A/WSN/1933(H1N1))
HEK-293T = assay: Cytotoxicity against human 293T cells at >10 uM after 48 to 72 hrs; assay type: cell-based
MDCK = assay: Cytotoxicity against MDCK cells at >10 uM after 48 to 72 hrs; assay type: cell-based, Canis lupus familiaris; conditions: dog
[2] = test system: Influenza A virus (A/WSN/1933(H1N1)); assay: Antiviral activity against Influenza A virus (A/WSN/1933(H1N1)) infected in BALB/c mouse assessed as increase in survival rate at 2.6 umol/kg/day, po bid administered on day 0 prior to viral infection continued for day 1 to day 4 measured on day 14; assay type: functional, organism-based
[3] = test system: Influenza A virus (A/WSN/1933(H1N1)); assay: Antiviral activity against Influenza A virus (A/WSN/1933(H1N1)) infected in BALB/c mouse assessed as increase in survival rate at 0.12 umol/kg/day administered on day 0 intranasally bid prior to viral infection continued for day 1 to day 4 measured on day 9; assay type: functional
[4] = test system: Influenza A virus (A/WSN/1933(H1N1)); assay: Antiviral activity against Influenza A virus (A/WSN/1933(H1N1)) infected in BALB/c mouse assessed as increase in survival rate at 1.2 umol/kg/day administered on day 0 intranasally bid prior to viral infection continued for day 1 to day 4 measured on day 14; assay type: functional
[5] = Cellular uptake in MDCK2 cells measured per mg of protein at 100 ug/mL after 120 mins by HPLC analysis; assay type: ADME, cell-based, Canis lupus familiaris; conditions: dog, mdck-ii, 2 h
Caco-2 = assay: Permeability across apical to basolateral side in human Caco2 cells at 100 ug/mL after 15 to 120 mins by HPLC analysis; assay type: ADME, cell-based
[6] = First order rate constant associated with the terminal portion of the curve in ICR mouse at 0.25 mg/kg, iv; assay type: ADME, organism-based; set-up: dose 0.25 mg/kg, route intravenous; conditions: in vivo
[7] = AUC (0 to 2 hrs) in ICR mouse at 0.25 mg/kg, iv; assay type: ADME, organism-based; set-up: time < 2 hr, dose 0.25 mg/kg, route intravenous; conditions: plasma
[8] = AUC (0 to infinity) in ICR mouse at 0.25 mg/kg, iv; assay type: ADME, organism-based; set-up: time infinity, dose 0.25 mg/kg, route intravenous; conditions: plasma
[9] = Terminal half life in ICR mouse at 0.25 mg/kg, iv; assay type: ADME, organism-based; set-up: dose 0.25 mg/kg, route intravenous; conditions: in vivo, read-out: beta t1/2 (converted)
Mus musculus = assay: Bioavailability in ICR mouse at 0.25 mg/kg, iv; assay type: ADME, organism-based; conditions: in vivo
[10] = First order rate constant associated with the terminal portion of the curve in ICR mouse at 10 mg/kg, po; assay type: ADME, organism-based; set-up: dose 10 mg/kg, route oral; conditions: in vivo
[11] = AUC (0 to 12 hrs) in ICR mouse at 10 mg/kg, po; assay type: ADME, organism-based; set-up: time < 12 hr, dose 10 mg/kg, route oral; conditions: plasma
[12] = AUC (0 to infinity) in ICR mouse at 10 mg/kg, po; assay type: ADME, organism-based; set-up: time infinity, dose 10 mg/kg, route oral; conditions: plasma
[13] = Terminal half life in ICR mouse at 10 mg/kg, po; assay type: ADME, organism-based; set-up: dose 10 mg/kg, route oral; conditions: in vivo, read-out: beta t1/2 (converted)
[14] = Apparent total clearance in ICR mouse at 10 mg/kg; assay type: ADME, organism-based; set-up: dose 10 mg/kg; conditions: in vivo, read-out: CLt/F (converted)
[15] = Oral bioavailability in ICR mouse at 10 mg/kg; assay type: ADME, organism-based; conditions: in vivo
[16] = Cmax in ICR mouse at 10 mg/kg; assay type: ADME, organism-based; set-up: dose 10 mg/kg; conditions: in vivo
[17] = Tmax in ICR mouse at 10 mg/kg; assay type: ADME, organism-based; set-up: dose 10 mg/kg; conditions: in vivo

Neuraminidase, sequence (B4URF0 whole entry): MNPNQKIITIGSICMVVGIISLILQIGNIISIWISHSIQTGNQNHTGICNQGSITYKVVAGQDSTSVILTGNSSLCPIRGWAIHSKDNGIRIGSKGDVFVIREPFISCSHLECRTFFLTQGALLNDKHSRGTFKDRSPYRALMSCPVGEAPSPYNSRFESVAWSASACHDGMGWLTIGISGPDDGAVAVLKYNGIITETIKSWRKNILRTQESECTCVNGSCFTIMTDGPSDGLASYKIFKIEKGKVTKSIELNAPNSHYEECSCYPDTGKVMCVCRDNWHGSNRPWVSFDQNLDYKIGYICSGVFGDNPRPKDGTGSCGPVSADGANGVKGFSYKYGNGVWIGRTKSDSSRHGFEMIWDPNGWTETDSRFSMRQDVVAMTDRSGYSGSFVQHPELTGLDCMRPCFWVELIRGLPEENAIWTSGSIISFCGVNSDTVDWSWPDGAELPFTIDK

| Structure (SMILES) | logD at 24 h [1] | IC50 (Neuraminidase) | Activity (HEK-293T) | Activity (MDCK) | Activity [2] | Activity [3] | also measured |
| --- | --- | --- | --- | --- | --- | --- | --- |
| CCCCCCOP(=O)(O)C1=C[C@@H](OC(CC)CC)[C@H](NC(C)=O)[C@@H](N)C1 | 0.3 | 2.2 nM | Non-toxic | Non-toxic |  |  |  |
| CCOC(=O)C1=C[C@@H](OC(CC)CC)[C@H](NC(C)=O)[C@@H](N)C1 |  |  |  |  | Active |  |  |
| CC(=O)N[C@H]1[C@H]([C@H](O)[C@H](O)CO)OC(C(=O)O)=C[C@@H]1NC(=N)N |  |  |  |  |  | inactive |  |
| CCOP(=O)(O)C1=C[C@@H](OC(CC)CC)[C@H](NC(C)=O)[C@@H](N)C1 [TAMIPHOSPHOR MONOETHYL ESTER] |  |  | Non-toxic | Non-toxic |  |  |  |
| CCCCOP(=O)(O)C1=C[C@@H](OC(CC)CC)[C@H](NC(C)=O)[C@@H](NC(=N)N)C1 | -0.16 | 6.7 nM | Non-toxic | Non-toxic |  |  |  |
| CCCCOP(=O)(O)C1=C[C@@H](OC(CC)CC)[C@H](NC(C)=O)[C@@H](N)C1 | -0.29 | 6.9 nM | Non-toxic | Non-toxic |  |  |  |
| CCC(CC)O[C@@H]1C=C(P(=O)(O)OCCCc2ccccc2)C[C@H](N)[C@H]1NC(C)=O | 0.28 | 1.8 nM | Non-toxic | Non-toxic |  |  |  |
| CCOP(=O)(O)C1=C[C@@H](OC(CC)CC)[C@H](NC(C)=O)[C@@H](NC(=N)N)C1 [TAMIPHOSPHOR MONOETHYL ESTER] |  |  |  |  | Active | Active | Activity [4]: Active |
| CCC(CC)O[C@@H]1C=C(P(=O)(O)OCCCc2c[nH]c3ccccc23)C[C@H](N)[C@H]1NC(C)=O |  | 1.7 nM | Non-toxic | Non-toxic |  |  |  |
| CCCCCCOP(=O)(O)C1=C[C@@H](OC(CC)CC)[C@H](NC(C)=O)[C@@H](NC(=N)N)C1 | 0.63 | 4.1 nM | Non-toxic | Non-toxic | Active | Active | Drug uptake [5]: 13500 ng; permeability (Caco-2): permeable; k el [6]: 0.000533 s⁻¹; AUC(0-t) at 2 h [7]: 169 ng·h/mL; AUC(0-inf) [8]: 173 ng·h/mL; half-life [9]: 21.6 min; F (Mus musculus): 100%; k el [10]: 0.000167 s⁻¹; AUC(0-t) at 12 h [11]: 361 ng·h/mL; AUC(0-inf) [12]: 867 ng·h/mL; half-life [13]: 64.2 min; CL/F [14]: 184 mL/min/kg; bioavailability [15]: 12.6%; Cmax [16]: 261 ng/mL; Tmax [17]: 1 h; Activity [4]: Active |
| CCC(CC)O[C@@H]1C=C(P(=O)(O)OCCCc2ccccc2)C[C@H](NC(=N)N)[C@H]1NC(C)=O | 0.66 | 3.2 nM | Non-toxic | Non-toxic | Active | Active | Drug uptake [5]: < 2000 ng; Activity [4]: Active |
